Converted amounts (≈) assume the structure as drawn. Where two headings read alike, the source gives them in different places. One block for each compound: values may come before it.
Legend:
Type in all cases: cell-based
[1] = system: Staphylococcus aureus 100 (MSSA); assay: MIC by broth microdilution, SA 100; conditions: read-out: MIC SA 100
Source text: (§1) As used herein, the term “minimum inhibitory concentration” (MIC) refers to the lowest concentration of an antibiotic that is needed to inhibit growth of a bacterial isolate in vitro. A common method for determining the MIC of an antibiotic is to prepare several tubes containing serial dilutions of the antibiotic, that are then inoculated with the bacterial isolate of interest.
(§2) Antibacterial activity in vitro is investigated by broth microdilution method in Meuller-Hinton broth as recommended by NCCLS. All strains tested are clinical isolates either sensitive or resistant to natural glycopeptides. MIC values were determined using the CLSI-recommended broth microdilution procedure (Clinical and Laboratoratory Standards Institute, Methods for Dilution Antimicrobial Susceptibility Tests for Bacteria That Grow Aerobically; Approved Standard-Seventh Edition.). Automated liquid handlers (Multidrop 384, Labsystems, Helsinki, Finland; Biomek 2000 and Multimek 96, Beckman Coulter, Fullerton Calif.) were used to conduct serial dilutions and liquid transfers.

[2] = system: Staphylococcus aureus 757 (MRSA); assay: MIC by broth microdilution, SA 757; conditions: read-out: MIC SA 757
Source text: as §1, §2

[3] = system: Staphylococcus aureus 2012 (VISA); assay: MIC by broth microdilution, SA 2012; conditions: read-out: MIC SA 2012
Source text: as §1, §2

[4] = system: Staphylococcus epidermidis 835 (MSSE); assay: MIC by broth microdilution, SE 835; conditions: read-out: MIC SE 835
Source text: as §1, §2

[5] = system: Staphylococcus epidermidis 831 (MRSE); assay: MIC by broth microdilution, SE 831; conditions: read-out: MIC SE 831
Source text: as §1, §2

[6] = system: Enterococcus faecalis 101 (vancomycin sensitive); assay: MIC by broth microdilution, EFC 101; conditions: read-out: MIC EFC 101
Source text: as §1, §2

[7] = system: Enterococcus faecalis 848 (VRE); assay: MIC by broth microdilution, EFC 848; conditions: read-out: MIC EFC 848
Source text: as §1, §2

[8] = system: Enterococcus faecium 750 (vancomycin sensitive); assay: MIC by broth microdilution, EFCM 750; conditions: read-out: MIC EFCM 750
Source text: as §1, §2

[9] = system: Enterococcus faecium 752 (VRE); assay: MIC by broth microdilution, EFCM 752; conditions: read-out: MIC EFCM 752
Source text: as §1, §2

[10] = system: Streptococcus pneumoniae 1195 (penicillin sensitive); assay: MIC by broth microdilution, SPNE 1195; conditions: read-out: MIC SPNE 1195
Source text: as §1, §2

[11] = system: Streptococcus pyogenes 712 (penicillin sensitive); assay: MIC by broth microdilution, SPYO 712; conditions: read-out: MIC SPYO 712
Source text: as §1, §2

SMILES: CN[C@H](CC(C)C)C(=O)N[C@H]1C(=O)N[C@@H](CC(N)=O)C(=O)N[C@H]2C(=O)N[C@H]3C(=O)N[C@H](C(=O)N[C@H](C(=O)O)c4cc(O)cc(O)c4-c4cc3ccc4O)[C@H](O)c3ccc(c(Cl)c3)Oc3cc2cc(c3O[C@@H]2O[C@H](CO)[C@@H](O)[C@H](O)[C@H]2O[C@H]2C[C@](C)(N)[C@H](O)[C@H](C)O2)Oc2ccc(cc2Cl)[C@H]1O [Vancomycin, vancomycin]
MIC ([1]; Staphylococcus aureus, MSSA): 1 µg/mL (≈ 0.69 µM)
MIC ([2]; Staphylococcus aureus, MRSA): 1 µg/mL (≈ 0.69 µM)
MIC ([3]; Staphylococcus aureus, VISA): 8 µg/mL (≈ 5.52 µM)
MIC ([4]; Staphylococcus epidermidis): 2 µg/mL (≈ 1.38 µM)
MIC ([5]; Staphylococcus epidermidis, MRSE): 2 µg/mL (≈ 1.38 µM)
MIC ([6]; Enterococcus faecalis): 2 µg/mL (≈ 1.38 µM)
MIC ([7]; Enterococcus faecalis, VRE): > 64 µg/mL
MIC ([8]; Enterococcus faecium): 1 µg/mL (≈ 0.69 µM)
MIC ([9]; Enterococcus faecium, VRE): > 64 µg/mL
MIC ([10]; Streptococcus pneumoniae): 0.25 µg/mL (≈ 0.173 µM)
MIC ([11]; Streptococcus pyogenes): 0.5 µg/mL (≈ 0.345 µM)

MIC ([1]; Staphylococcus aureus 100 (MSSA), clinical isolate, Mueller-Hinton broth): 2 µg/mL (≈ 1.4 µM)
MIC ([2]; Staphylococcus aureus 757 (MRSA), clinical isolate, Mueller-Hinton broth): 2 µg/mL (≈ 1.4 µM)
MIC ([3]; Staphylococcus aureus 2012 (VISA), clinical isolate, Mueller-Hinton broth): 2 µg/mL (≈ 1.4 µM)
MIC ([4]; Staphylococcus epidermidis 835 (MSSE), clinical isolate, Mueller-Hinton broth): 2 µg/mL (≈ 1.4 µM)
MIC ([5]; Staphylococcus epidermidis 831 (MRSE), clinical isolate, Mueller-Hinton broth): 1 µg/mL (≈ 0.698 µM)
MIC ([6]; Enterococcus faecalis 101 (vancomycin sensitive), clinical isolate, Mueller-Hinton broth): 2 µg/mL (≈ 1.4 µM)
MIC ([7]; Enterococcus faecalis 848 (VRE), clinical isolate, Mueller-Hinton broth): 2 µg/mL (≈ 1.4 µM)
MIC ([8]; Enterococcus faecium 750 (vancomycin sensitive), clinical isolate, Mueller-Hinton broth): 1 µg/mL (≈ 0.698 µM)
MIC ([9]; Enterococcus faecium 752 (VRE), clinical isolate, Mueller-Hinton broth): 2 µg/mL (≈ 1.4 µM)
MIC ([10]; Streptococcus pneumoniae 1195 (penicillin sensitive), clinical isolate, Mueller-Hinton broth): 0.5 µg/mL (≈ 0.349 µM)
MIC ([11]; Streptococcus pyogenes 712 (penicillin sensitive), clinical isolate, Mueller-Hinton broth): 0.25 µg/mL (≈ 0.175 µM)
SMILES: CCCCCCCCNC(=O)NC(=O)C[C@@H]1NC(=O)[C@H](NC(=O)[C@@H](CC(C)C)NC)[C@H](O)c2ccc(c(Cl)c2)Oc2cc3cc(c2O)Oc2ccc(cc2Cl)[C@@H](O)[C@H]2NC(=O)[C@H](NC(=O)[C@@H]3NC1=O)c1ccc(O)c(c1)-c1c(O)cc(O)cc1[C@@H](C(=O)NC1C3CC4CC(C3)CC1C4)NC2=O (stereo partly shown) [Compound 23]

Source: patent US20100216699A1, “SEMI-SYNTHETIC GLYCOPEPTIDES HAVING ANTIBACTERIAL ACTIVITY” (LEAD THERAPEUTICS, INC., priority 2009, published 2010)
